In brackets after ≈: the same amount, converted by molar mass. Ends that are not written are not given here.
Legend:
[1] = system: Enterococcus faecium (n = 104); test: microbe, parasite or virus in culture
Protocol: Comparator antibiotics were supplied by Micromyx, and stock solutions were prepared on the first day of testing using solvents recommended by CLSI (1). Stock solutions of all compounds were made at 40× the final testing concentration and stored at −80° C. prior to testing. Information regarding compound source, catalog and lot number, testing concentrations and drug diluent for the comparators and test agent are detailed below in Table 3.
The test organisms evaluated in this study consisted of clinical isolates from the Micromyx Repository and reference isolates from the American Type Culture Collection (ATCC; Manassas, Va.). The clinical isolates were obtained from USA hospitals. Upon initial receipt at Micromyx, the organisms were sub-cultured onto an appropriate agar medium. Following incubation, colonies were harvested from these plates and cell suspensions prepared and frozen at −80° C. with a cryoprotectant. Prior to testing, the isolates were streaked from frozen vials onto Trypticase Soy Agar with 5% sheep blood (Becton Dickenson [BD]; Sparks, MD; Lot Nos. 7173618, 7166759, 7208688, 72144895, 7228505 and Remel Lenexa, Kans. Lot No. 212574). Plates were incubated at 35° C. overnight.
Mueller Hinton II broth (MHB II; BD; Lot Nos. 6258541 and 7143896) was used for MIC testing of aerobic organisms.
(§1) MIC values were determined using a broth microdilution procedure described by CLSI (1, 3). Automated liquid handlers (Multidrop 384, Labsystems, Helsinki, Finland; Biomek 2000 and Biomek FX, Beckman Coulter, Fullerton Calif.) were used to conduct serial dilutions and liquid transfers.
To prepare the drug mother plates, which would provide the serial drug dilutions for the replicate daughter plates, the wells of columns 2-12 of standard 96-well microdilution plates (Costar 3795) were filled with 150 µl of the designated diluent for each row of drug. The test articles and comparator compounds ([…] at 40× the highest concentration to be tested) were dispensed into the appropriate wells in column 1. The Biomek 2000 was then used to make 2-fold serial dilutions in the mother plates from column 1 through column 11. The wells of Column 12 contained no drug and served as the organism growth control wells for the assay.
(§2) The daughter plates were loaded with 185 g L per well of MHB II using the Multidrop 384. The daughter plates were completed on the Biomek FX instrument which transferred 5 µL of drug solution from each well of a mother plate to the corresponding well of each daughter plate in a single step. A standardized inoculum of each test organism was prepared per CLSI methods (1). The inoculum for each organism was dispensed into sterile reservoirs divided by length (Beckman Coulter), and the Biomek 2000 was used to inoculate the plates. Daughter plates were placed on the Biomek 2000 work surface in reverse orientation so that inoculation took place from low to high drug concentration.
(§3) Plates were stacked 3-4 high, covered with a lid on the top plate, placed in plastic bags, and incubated at 35° C. for 16 to 20 hrs. Following incubation, the microplates were removed from the incubator and viewed from the bottom using a plate viewer. […] The MIC was read and recorded as the lowest concentration of drug that inhibited visible growth of the organism.
Clinical breakpoints to determine percent resistance within a given organism group were obtained from CLSI (3), with the exception of colistin for K. pneumoniae, Enterobacter spp., and E. coli, which are only available from EUCAST.

[2] = system: Staphylococcus aureus (n = 104); test: microbe, parasite or virus in culture; format: cell-based
Protocol: The clinical isolates were obtained from USA hospitals. […] Plates were incubated at 35° C. overnight.

[3] = system: Acinetobacter baumannii ATCC 19606 (non-MDR); format: cell-based; conditions: ATCC 19606
Protocol: (§4) Each peptide was formulated in PBS buffer prior to testing. Peptides of SEQ ID NO:5 and SEQ ID NO:8 were brought up in 100% DMSO with 0.002% polysorbate-80 at 1.28 mg/mL (40× the highest final test concentration of 32 mcg/mL). Final test concentration of DMSO was 2.5% in the assay at the first dilution for those two compounds.
(§5) Mueller Hinton II broth (MHB II; BD; Lot Nos. 6258541 and 7143896) was used for MIC testing of aerobic organisms. 0.002% polysorbate 80 (P80) was added to the test medium.
as §1
(§6) To prepare the drug mother plates, which would provide the serial peptide dilutions for the replicate daughter plates, the wells of columns 2-12 of standard 96-well microdilution plates (Costar 3795) were filled with 150 µl of the designated diluent for each row of peptide.
(§7) The test articles and comparator compounds ([…] at 40× the highest concentration to be tested) were dispensed into the appropriate wells in column 1. The Biomek 2000 was then used to make 2-fold serial dilutions in the mother plates from column 1 through column 11. The wells of Column 12 contained no drug and served as the organism growth control wells for the assay.
as §2, with “185 μL” for “185 g L”, “5 uL” for “5 µL”, “of peptide” for “of drug”, “CLSI methods.” for “CLSI methods (1).”
as §3, with “peptide” for “drug”

[4] = system: Enterococcus faecalis ATCC 29212 (VSE; QC); format: cell-based; conditions: ATCC 29212
Protocol: as §4, §5, §1, §6, §7
as §2, with “185 μL” for “185 g L”, “5 uL” for “5 µL”, “of peptide” for “of drug”, “CLSI methods.” for “CLSI methods (1).”
as §3, with “peptide” for “drug”

[5] = system: Enterococcus faecalis ATCC 700802 (V583 VRE); format: cell-based; conditions: ATCC 700802
Protocol: as §4, §5, §1, §6, §7
as §2, with “185 μL” for “185 g L”, “5 uL” for “5 µL”, “of peptide” for “of drug”, “CLSI methods.” for “CLSI methods (1).”
as §3, with “peptide” for “drug”

[6] = system: Enterococcus faecium ATCC 51559 (VRE); format: cell-based; conditions: ATCC 51559
Protocol: as §4, §5, §1, §6, §7
as §2, with “185 μL” for “185 g L”, “5 uL” for “5 µL”, “of peptide” for “of drug”, “CLSI methods.” for “CLSI methods (1).”
as §3, with “peptide” for “drug”

[7] = system: Escherichia coli ATCC 25922 (QC); format: cell-based; conditions: ATCC 25922
Protocol: as §4, §5, §1, §6, §7
as §2, with “185 μL” for “185 g L”, “5 uL” for “5 µL”, “of peptide” for “of drug”, “CLSI methods.” for “CLSI methods (1).”
as §3, with “peptide” for “drug”

[8] = system: Escherichia coli ATCC 35218 (ESBL); format: cell-based; conditions: ATCC 35218
Protocol: as §4, §5, §1, §6, §7
as §2, with “185 μL” for “185 g L”, “5 uL” for “5 µL”, “of peptide” for “of drug”, “CLSI methods.” for “CLSI methods (1).”
as §3, with “peptide” for “drug”

[9] = system: Escherichia coli ATCC BAA-2471 (NDM-1); format: cell-based; conditions: ATCC BAA-2471
Protocol: as §4, §5, §1, §6, §7
as §2, with “185 μL” for “185 g L”, “5 uL” for “5 µL”, “of peptide” for “of drug”, “CLSI methods.” for “CLSI methods (1).”
as §3, with “peptide” for “drug”

[10] = system: Klebsiella pneumoniae ATCC BAA-1705 (KPC); format: cell-based; conditions: ATCC BAA-1705
Protocol: as §4, §5, §1, §6, §7
as §2, with “185 μL” for “185 g L”, “5 uL” for “5 µL”, “of peptide” for “of drug”, “CLSI methods.” for “CLSI methods (1).”
as §3, with “peptide” for “drug”

[11] = system: Pseudomonas aeruginosa ATCC 27853 (non-MDR; QC); format: cell-based; conditions: ATCC 27853
Protocol: as §4, §5, §1, §6, §7
as §2, with “185 μL” for “185 g L”, “5 uL” for “5 µL”, “of peptide” for “of drug”, “CLSI methods.” for “CLSI methods (1).”
as §3, with “peptide” for “drug”

[12] = system: Pseudomonas aeruginosa ATCC BAA-2109 (MDR); format: cell-based; conditions: ATCC BAA-2109
Protocol: as §4, §5, §1, §6, §7
as §2, with “185 μL” for “185 g L”, “5 uL” for “5 µL”, “of peptide” for “of drug”, “CLSI methods.” for “CLSI methods (1).”
as §3, with “peptide” for “drug”

[13] = system: Staphylococcus aureus ATCC 29213 (MSSA; QC); format: cell-based; conditions: ATCC 29213
Protocol: as §4, §5, §1, §6, §7
as §2, with “185 μL” for “185 g L”, “5 uL” for “5 µL”, “of peptide” for “of drug”, “CLSI methods.” for “CLSI methods (1).”
as §3, with “peptide” for “drug”

[14] = system: Staphylococcus aureus ATCC 43300 (MRSA); format: cell-based; conditions: ATCC 43300
Protocol: as §4, §5, §1, §6, §7
as §2, with “185 μL” for “185 g L”, “5 uL” for “5 µL”, “of peptide” for “of drug”, “CLSI methods.” for “CLSI methods (1).”
as §3, with “peptide” for “drug”

[15] = system: Staphylococcus aureus NRS382 (USA100; HA-MRSA); format: cell-based; conditions: USA100
Protocol: as §4, §5, §1, §6, §7
as §2, with “185 μL” for “185 g L”, “5 uL” for “5 µL”, “of peptide” for “of drug”, “CLSI methods.” for “CLSI methods (1).”
as §3, with “peptide” for “drug”

[16] = system: Streptococcus pneumoniae ATCC 49619 (QC); format: cell-based; conditions: ATCC 49619
Protocol: as §4, §5, §1, §6, §7
as §2, with “185 μL” for “185 g L”, “5 uL” for “5 µL”, “of peptide” for “of drug”, “CLSI methods.” for “CLSI methods (1).”
as §3, with “peptide” for “drug”

[17] = system: Streptococcus pyogenes ATCC 49399; format: cell-based; conditions: ATCC 49399
Protocol: as §4, §5, §1, §6, §7
as §2, with “185 μL” for “185 g L”, “5 uL” for “5 µL”, “of peptide” for “of drug”, “CLSI methods.” for “CLSI methods (1).”
as §3, with “peptide” for “drug”

[18] = system: Acinetobacter baumannii ATCC BAA-1797 (MDR); test: microbe, parasite or virus in culture; format: cell-based; conditions: ATCC BAA-1797
Protocol: as §4, §5, §1, §6, §7
as §2, with “185 μL” for “185 g L”, “5 uL” for “5 µL”, “of peptide” for “of drug”, “CLSI methods.” for “CLSI methods (1).”
as §3, with “peptide” for “drug”

| Molecule | MIC [3] [µg/mL] | MIC [4] [µg/mL] | MIC [5] [µg/mL] | MIC [6] [µg/mL] | MIC [7] [µg/mL] | MIC [8] [µg/mL] | MIC [9] [µg/mL] | MIC [10] [µg/mL] | MIC [11] [µg/mL] | MIC [12] [µg/mL] | MIC [13] [µg/mL] | MIC [14] [µg/mL] | MIC [15] [µg/mL] | MIC [16] [µg/mL] | MIC [17] [µg/mL] | MIC [18] [µg/mL] | further results |
| --- | --- | --- | --- | --- | --- | --- | --- | --- | --- | --- | --- | --- | --- | --- | --- | --- | --- |
| CN[C@H](CC(C)C)C(=O)N[C@H]1C(=O)N[C@@H](CC(N)=O)C(=O)N[C@H]2C(=O)N[C@H]3C(=O)N[C@H](C(=O)N[C@H](C(=O)O)c4cc(O)cc(O)c4-c4cc3ccc4O)[C@H](O)c3ccc(c(Cl)c3)Oc3cc2cc(c3O[C@@H]2O[C@H](CO)[C@@H](O)[C@H](O)[C@H]2O[C@H]2C[C@](C)(N)[C@H](O)[C@H](C)O2)Oc2ccc(cc2Cl)[C@H]1O [Vancomycin] | – | – | – | – | – | – | – | – | – | – | – | – | – | – | – | – | MIC50 ([1]; Enterococcus faecium): 1 µg/mL (≈ 0.69 µM); MIC90 ([1]; Enterococcus faecium): > 32 µg/mL; MIC90 ([1]; Enterococcus faecium (n = 104)): >32 µg/mL; % R (isolates resistant) ([1]; Enterococcus faecium (n = 104), CLSI breakpoints): 47.1%; MIC ([1]; Enterococcus faecium, read-out: Mode (MIC)): > 32 µg/mL; MIC50 ([2]; Staphylococcus aureus): 1 µg/mL (≈ 0.69 µM); MIC90 ([2]; Staphylococcus aureus): 1 µg/mL (≈ 0.69 µM); % R (isolates resistant) ([2]; Staphylococcus aureus (n = 104), CLSI breakpoints): 0%; MIC range ([2]; Staphylococcus aureus (n = 104), all methicillin-resistant): 0.5 to 2 µg/mL; MIC ([2]; Staphylococcus aureus, read-out: Mode (MIC)): 1 µg/mL (≈ 0.69 µM) |
| IRRIIRRIRRIIRRIRRIIRR [SEQ ID NO: 4] | 8 | 8 | 8 | 4 | 4 | 8 | 4 | 32 | 8 | 4 | 8 | 4 | 4 | 16 | 16 | 8 | – |
| IRRRIRRIRRRIRRIRRRIRR [SEQ ID NO: 3] | 8 | 32 | >32 | 4 | 4 | 4 | 4 | 32 | 4 | 2 | 8 | 8 | 8 | 32 | 16 | 16 | – |
